Reference: paper PMC10799709, “Characterization of a New Immunosuppressive and Antimicrobial Peptide, DRS-DA2, Isolated from the Mexican Frog, Pachymedusa dacnicolor” (International Journal of Inflammation, 2024)
Values after ≈ are worked out from the molar mass of the structure shown. Peptide text beside a SMILES is read from it.

Assays:
[1] = system: Gram-positive and Gram-negative strains; test: Antibacterial properties on a series of strains; type: cell-based
Description: (§1) The minimum inhibitory concentration (MIC) was determined by a liquid test in 96-well microplates as previously described. 100 µL of the sample to be tested was distributed in triplicate to obtain a range of final concentrations from 100 to 0.2 µM in the wells. 90 µL of bacterial suspension (5 × 10^5 CFU/mL for Gram-negative bacteria and 5 × 10^5 CFU/mL for Gram-positive strains in Mueller–Hinton broth) were added to each well [14]. The microtiter plates were incubated at 37°C overnight. The optical density of the wells was measured at […], and the results were interpreted by calculating the percentage of growth in each well according to the formula: % growth = (OD600 well − OD600 T0)/(OD600 of T100 − OD600 T0) ∗ 100, where OD600 T100 = DO600 growth control (bacterial suspension without the test sample, 100% growth), OD600 T0 = OD600 of sterility control (culture medium + […] 10 µL formaldehyde, 0% growth) well, and OD600 = OD600 of the well which was desired to calculate the percentage of growth (+ bacterial suspension test sample). MIC is the minimum concentration of the peptide that inhibits bacterial growth after incubation at 37°C for 20 hours.
The minimum bactericidal concentration (MBC) is defined as the minimum concentration of the peptide killing 99.9% of bacteria after incubation at 37°C for 20 hours. […]

Jurkat E6-1 cells = test: Apoptosis/necrosis assay (annexin V / eFluor 780); type: cell-based; details: Jurkat E6-1, 5 µM, 2 hours
Description: Induction of apoptosis or necrosis by the peptides was tested by incubating 5.10^5 Jurkat E6-1 cells in 200 µl RPMI containing 10% FBS and […] with the peptides at 5 µM for 2 hours at 37°C, 5% CO2. A positive control was obtained by exposing the cells to UV light for 10 min (1 mJ/cm^2, Stratagene UV Stratalinker 2400), before incubating them for 4 hours at 37°C, 5% CO2, RPMI 10% FBS. Cells were then washed, centrifuged, resuspended, and incubated 30 min at 4°C in the dark with Viability dye 780 (BioLegend). After washing the cells, Annexin-V-FITC in annexin-binding buffer was added, and the cells were incubated for 15 minutes at room temperature in the dark. The cells were fixed with PFA at a final dilution of 2% before being analyzed by FACSCanto flow cytometry.

mouse leukocytes = test: Cytotoxic assay on mouse leukocytes (viability dye, flow cytometry); type: cell-based; details: 2 h, various concentrations
Excerpt: (§2) Human leukocytes were provided by the « Banco de Sangre del Hospital Regional del IMSS » and the Centro Estatal de la Transfusión Sanguínea in Cuernavaca, Morelos, Mexico. Institutional committees approved the acquisition and isolation of human peripheral blood leukocytes. Human leukocytes and erythrocytes were obtained as previously described. Mouse bone marrow cells (MBMCs) and erythrocytes were obtained from C57BL/6 or Balb/c mice. Mouse epithelial cells were isolated from C57Bl/6 mice, and human epithelial cells were recovered from surgery residues. In brief, intestinal tissues were minced and digested in 450-U/mL collagenase I, 125-U/mL collagenase XI, 60-U/mL hyaluronidase, and 60-U/mL DNAse for 1 hour before gradient density centrifugation on Histopaque-1083 (Sigma-Aldrich, St. Louis, MO). […]
(§3) 5.10^5 mouse or human leukocytes or primary epithelial cells, A549 or Jurkat E6-1 cells, were incubated in 100 µl RPMI or DMEM containing 0.5% BSA and […] with the peptides at different concentrations for 2 hours at 37°C, 5% CO2. […] Viability of leukocytes and Jurkat cells was determined by adding a viability dye (eFluor 780) and counted by FacsCanto flow cytometry with a predetermined number of beads (Polybead, Carboxylate Microspheres, Polysciences, Inc., Le Perray-en-Yvelines, France) added to the samples. […] Data were analyzed with FlowJo.

human leukocytes = test: Cytotoxic assay on human leukocytes (viability dye, flow cytometry); type: cell-based; details: 2 h, various concentrations
Excerpt: as §2, §3

[2] = Circular dichroism, percentage of helicity; type: physicochemical; details: POPE: POPG (75 : 25) LUVs, peptide/lipid 1/50, 10 mM Tris pH 7.4
Description: The CD spectra of the peptides were recorded as previously described. Measurements were carried out in 10 mM Tris buffer at pH 7.4 and in the presence of POPC, POPG, and POPG-POPC (25 : 75) LUVs or POPG-POPE (25 : 75) LUVS to mimic E. coli inner membrane composition at a peptide/lipid molar ratio of 1/50. Dichroic spectra were corrected by subtracting the background obtained for each peptide-free solution. An analysis of CD spectra was conducted after smoothing, and conversion to molar ellipticity was calculated as follows: […], where θobs is the observed ellipticity, n is the number of bonds, c is the peptide concentration in mol. L^−1, and l is the path length in cm.

C57BL/6 mice = test: Thioglycolate-induced peritoneal inflammation (noninfectious peritonitis); type: in vivo, mouse; details: thioglycolate 3% i.p., 15 µg/injection i.p. at 14, 19 and 24 h, flow cytometry
Description: C57BL/6 mice were injected intraperitoneally with 1 mL 3% (wt/vol) thioglycolate (Sigma-Aldrich, l'Ile d'Abeau, France) dissolved in sterile NaCl and then 14, 19, and 24 hours later injected i.p. with DRS-DA2N or DRS-DA2NEQ (15 µg/injection). NaCl was used as a negative control. Twelve hours after the last injection, mice were killed, and 3 mL of cold PBS was injected i.p. to harvest peritoneal cells, which were then stained with anti-mouse Ly6G-PE, anti-mouse NK1.1-PE, anti-mouse CD11b-PerCP, and anti-mouse F4/80-APC (BD Biosciences, Rungis, France). Blood and bone marrow were also collected and stained with the same antibodies. Cells and beads were then counted by FACSCalibur flow cytometry, and data were analyzed with FlowJo. Cells being CD11b^hiLy6G^−NK1.1^− are considered to be monocytes (Mo), CD11b^hiLy6G^−NK1.1^− F4/80^+ macrophages (MΦ), and CD11b^hiLy6G^+NK1.1^− neutrophils (PMN).

[3] = system: S. epidermidis ST20140436 (MecA+); test: Antibacterial activity on skin multiresistant bacteria; type: cell-based; details: Staphylococcus epidermidis
Description: as §1

[4] = system: S. aureus ATCC 700699 (MecA+); test: as above; type: cell-based; details: Staphylococcus aureus, ATCC700699
Description: as §1

[5] = system: Acinetobacter johnsonii (carbapenemase); test: as above; type: cell-based
Description: as §1

[6] = system: Propionibacterium acnes (clinical isolate), first listed; test: as above; type: cell-based; details: Cutibacterium acnes, first listed (r7)
Description: as §1

[7] = system: Propionibacterium acnes (clinical isolate), second listed; test: as above; type: cell-based; details: Cutibacterium acnes, second listed (r8)
Description: as §1

E. coli ATCC8739 = test: Time-kill assay; type: cell-based; details: E. coli ATCC8739, peptide at its MIC concentration, 37°C, CFU counting
Description: Time-killing experiments were achieved according to [18, 19] with minor modifications. The peptide's concentration was 1 × MIC and 2 × MIC. At the time points of 15, 30, 45, and 60 min and after homogenization, suspensions were diluted in 10 mM sodium phosphate buffer (pH 6.8) and spread onto MH agar plates. After overnight incubation at room temperature, CFUs were counted.

ANTS/DPX leakage assay = details: POPE/POPG (75 : 25) LUVs, 0.5 mM lipid, from Figure 10(c)
Description: The lipids 1-palmitoyl-2-oleoyl-sn-glycero-3-phospho-(1′-rac-glycerol) (POPG) and 1-palmitoyl-2-oleoyl-sn-glycero-3-phosphoethanolamine (POPE) were obtained from Avanti Polar Lipids, Inc., and used without further purification. Desired mixtures of phospholipids were first dried in glass tubes under nitrogen and then maintained under reduced pressure for at least 60 min. Lipid films were subsequently hydrated in PBS to yield a lipid concentration. The resulting dispersions were subjected to 5 freeze-thaw cycles by alternately placing the sample vial in a liquid nitrogen bath and a warm water bath (40°C). […]
The vesicles of POPE/POPG (75/25) at 25 mM concentration were obtained as previously described and suspended in a solution of 12.5 mM ANTS and 45 mM DPX in 10 mM HEPES. […] Final lipid concentration was measured by the method of Rouser.
To measure the leakage of DPX, the vesicles were diluted to a concentration of 0.5 mM lipid. […] ANTS fluorescence was monitored using a fluorimeter (excitation = 350 nm; emission = 530 nm) or a fluorescence plate reader (excitation filter wavelength/bandpass = 340/11; emission 530/25.
Fractional leakage was calculated as (Fsample − Finitial)/(Flysed−Finitial).

CSCC[C@H](NC(=O)[C@H](C)NC(=O)[C@H](C)NC(=O)[C@H](CCCCN)NC(=O)[C@@H](NC(=O)[C@H](CC(C)C)NC(=O)[C@@H](NC(=O)[C@H](CC(N)=O)NC(=O)CNC(=O)[C@@H](N)CCCCN)C(C)C)C(C)C)C(=O)N[C@@H](CC(C)C)C(=O)N[C@H](C(=O)N[C@@H](CCCCN)C(=O)N[C@H](C(=O)N[C@@H](CC(C)C)C(=O)N[C@@H](C)C(=O)N[C@@H](CCCCN)C(=O)N[C@@H](CC(N)=O)C(=O)N[C@@H](CCCCN)C(=O)NCC(=O)N[C@H](C(=O)N[C@@H](CCC(N)=O)C(=O)N[C@@H](CC(N)=O)C(=O)N[C@@H](C)C(=O)N[C@@H](CC(N)=O)C(=O)N[C@@H](C)C(=O)N[C@@H](CC(C)C)C(=O)N[C@H](C(=O)N[C@@H](Cc1c[nH]c2ccccc12)C(=O)O)[C@@H](C)O)C(C)C)C(C)C)[C@@H](C)O [Scr] (H-KGNVLVKAAMLTKVLAKNKGVQNANALTW-OH; N-terminus and C-terminus assumed)
bacterial activity [1]: did not exhibit any bacterial activity
cell death (Jurkat E6-1 cells): < 4%
cells alive (A−V−) (Jurkat E6-1 cells): more than 96%
induction of death of leukocyte populations (mouse leukocytes): did not induce the death
induction of death of leukocyte populations (human leukocytes): did not induce the death
percentage of helicity (CD) [2]: remained unstructured
egress of inflammatory cells from the bone marrow and increase in blood after induction of peritonitis (systemic effect) (C57BL/6 mice): conserved

CC1(C)S[C@@H]2[C@H](NC(=O)[C@H](N)c3ccc(O)cc3)C(=O)N2[C@H]1C(=O)O [amoxicillin]
MIC [3]: > 43.8 µM
MIC [4]: > 43.8 µM

CC(C)(O/N=C(\C(=O)N[C@@H]1C(=O)N2C(C(=O)[O-])=C(C[n+]3ccccc3)CS[C@H]12)c1csc(N)n1)C(=O)O [ceftazidime]
MIC [5]: > 29.3 µM

C[C@H]1c2cccc(O)c2C(=O)C2=C(O)[C@]3(O)C(=O)C(C(N)=O)=C(O)[C@@H](N(C)C)[C@@H]3[C@@H](O)[C@@H]21 [doxycycline]
MIC [6]: 0.13 µM (≈ 0.0578 µg/mL)
MIC [7]: 0.27 µM (≈ 0.12 µg/mL)

omiganan
incubation time after which all the bacteria were killed (E. coli ATCC8739): needed a much longer time to be active
LIC50 (peptide concentration required to induce 50% leakage) (ANTS/DPX leakage assay): No leakage
